US20260109721A1, “IONIZABLE CATIONIC LIPIDS INCORPORATING SILICON: SYNTHESIS AND LNP FORMULATION” (priority 2023, published 2026)

Test system: HeLa cells
Assay: Transfection efficiency with Luciferase (SecNLuc) mRNA, Nano-Glo assay (Method A)
Format: cell-based
Conditions: Luc mRNA, 24 h, luminescence; for Transfection 10 ng mRNA: 10 ng mRNA/well; for Transfection 50 ng mRNA: 50 ng mRNA/well; for Transfection 100 ng mRNA: 100 ng mRNA/well
Procedure, shortened: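 LNPs formulated by Method A carried SecNLuc mRNA at 100, 50 or 10 ng/well onto HeLa cells at 80% confluence, in triplicate. After 24 h, secreted NanoLuc in the medium was measured by Nano-Glo luminescence about 3 min after reagent addition.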

Row | SMILES | Transfection 10 ng mRNA | Transfection 50 ng mRNA | Transfection 100 ng mRNA
1 | CCCCC/C=C\C/C=C\CCCCCCCCOC(CCCCCCC/C=C\C/C=C\CCCCC)O[Si](C)(C)O[Si](C)(C)CCCCCCN(CCO)CCO (stereo not drawn) [Example 82, (24Z,27Z)-14-((8Z,11Z)-heptadeca-8,11-dien-1-yl)-3-(2-hydroxyethyl)-10,10,12,12-tetramethyl-11,13,15-trioxa-3-aza-10,12-disilatritriaconta-24,27-dien-1-ol] | 1.16E+03 | 7.26E+03 | 3.59E+04
2 | CCCCCCCC/C=C\CCCCCCCCOC(=O)C(C)(C)CC(OCCCCCCCC/C=C\CCCCCCCC)O[Si](C)(C)OCCCCCCN(CCO)CCO (stereo not drawn) [Example 84, (Z)-octadec-9-en-1-yl 1-hydroxy-3-(2-hydroxyethyl)-11,11,15,15-tetramethyl-13-(((Z)-octadec-9-en-1-yl)oxy)-10,12-dioxa-3-aza-11-silahexadecan-16-oate] | 3.08E+03 | 5.69E+04 | 2.00E+05
3 | CCCCCCCC/C=C\CCCCCCCCOC(=O)C(C)(C)CC(OCCCCCCCC/C=C\CCCCCCCC)O[Si](C)(C)OCCCCCCN1CCOCC1 (stereo not drawn) [Example 85, (Z)-octadec-9-en-1-yl 4-((dimethyl((6-morpholinohexyl)oxy)silyl)oxy)-2,2-dimethyl-4-(((Z)-octadec-9-en-1-yl)oxy)butanoate] | 4.67E+00 | 3.23E+01 | 8.37E+01
4 | CCCCCCCC/C=C\CCCCCCCCOC(=O)C(C)(C)CC(OCCCCCCCC/C=C\CCCCCCCC)O[Si](C)(C)OCCCCCCN(CCCCO)CCCCO (stereo not drawn) [Example 86, (Z)-octadec-9-en-1-yl 18-hydroxy-14-(4-hydroxybutyl)-2,2,6,6-tetramethyl-4-(((Z)-octadec-9-en-1-yl)oxy)-5,7-dioxa-14-aza-6-silaoctadecanoate] | 3.47E+04 | 4.82E+05 | 1.37E+06
5 | CCCCCCCC/C=C\CCCCCCCCOC(=O)C(C)(C)CC(OCCCCCCCC/C=C\CCCCCCCC)O[Si](C)(C)OCCCCCCN1CCCCC1 (stereo not drawn) [Example 87, (Z)-octadec-9-en-1-yl 4-((dimethyl((6-(piperidin-1-yl)hexyl)oxy)silyl)oxy)-2,2-dimethyl-4-(((Z)-octadec-9-en-1-yl)oxy)butanoate] | 5.68E+03 | 5.01E+04 | 9.96E+04
6 | CCCCCCCC/C=C\CCCCCCCCOC(=O)C(C)(C)CC(OCCCCCCCC/C=C\CCCCCCCC)O[Si](C)(C)OCCCCCCN(CCCO)CCCO (stereo not drawn) [Example 88, (Z)-octadec-9-en-1-yl 1-hydroxy-4-(3-hydroxypropyl)-12,12,16,16-tetramethyl-14-(((Z)-octadec-9-en-1-yl)oxy)-11,13-dioxa-4-aza-12-silaheptadecan-17-oate] | 6.30E+03 | 9.95E+04 | 5.10E+05
7 | CCCCCCCC/C=C\CCCCCCCCOC(=O)C(C)(C)CC(OCCCCCCCC/C=C\CCCCCCCC)O[Si](C)(C)OCCCCCCN1CCCCC1CO (stereo not drawn) [Example 89, (Z)-octadec-9-en-1-yl 4-((((6-(2-(hydroxymethyl)piperidin-1-yl)hexyl)oxy)dimethylsilyl)oxy)-2,2-dimethyl-4-(((Z)-octadec-9-en-1-yl)oxy)butanoate] | 1.10E+06 | 7.47E+06 | 1.54E+07
8 | CCCCCCCC/C=C\CCCCCCCCOC(=O)C(C)(C)CC(OCCCCCCCC/C=C\CCCCCCCC)O[Si](C)(C)OCCCCCCN1CCCC1CO (stereo not drawn) [Example 90, (Z)-octadec-9-en-1-yl 4-((((6-(2-(hydroxymethyl)pyrrolidin-1-yl)hexyl)oxy)dimethylsilyl)oxy)-2,2-dimethyl-4-(((Z)-octadec-9-en-1-yl)oxy)butanoate] | 2.84E+04 | 1.06E+06 | 4.86E+06
